Legend:
thromboxane synthetase = target: T1, thromboxane synthetase (Homo sapiens, UniProt P24557); assay: Inhibitory effect on thromboxane synthetase (TXB2 formation in human platelet suspension); format: cell-based; conditions: 10 minutes at ambient temperature, then 14C-labelled arachidonic acid 10 minutes, read-out: Inhibition of thromboxane synthetase IC50
T1 construct: endogenous in cells; host or cells: human platelets (platelet-rich plasma passed through Sepharose 2B)
T1 sequence (P24557 1-533): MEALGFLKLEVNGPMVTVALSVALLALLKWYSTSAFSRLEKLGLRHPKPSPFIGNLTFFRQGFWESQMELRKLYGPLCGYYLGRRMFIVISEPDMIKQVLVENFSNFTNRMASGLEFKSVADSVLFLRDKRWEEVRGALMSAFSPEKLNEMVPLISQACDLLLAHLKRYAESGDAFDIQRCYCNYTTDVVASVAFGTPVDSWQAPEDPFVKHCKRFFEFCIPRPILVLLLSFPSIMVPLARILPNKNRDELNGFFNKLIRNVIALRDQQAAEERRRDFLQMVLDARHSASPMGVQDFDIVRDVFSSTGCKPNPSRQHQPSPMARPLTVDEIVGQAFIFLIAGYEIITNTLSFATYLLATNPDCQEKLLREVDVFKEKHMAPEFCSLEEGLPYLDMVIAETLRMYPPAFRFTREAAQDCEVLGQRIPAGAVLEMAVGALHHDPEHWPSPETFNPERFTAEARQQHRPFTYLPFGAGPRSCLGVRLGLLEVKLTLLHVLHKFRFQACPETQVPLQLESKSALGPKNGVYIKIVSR
Procedure: Determining the Inhibitory Effect on Thromboxane Synthetase
Venous human blood is anti-coagulated with 13 mM Na3 citrate and centrifuged for 10 minutes at 170×g. The supernatant platelet-rich plasma is passed through a Sepharose 2B column in order to remove the plasma proteins. Aliquots of the platelet suspension obtained are incubated with the test substance or with a solvent as control for 10 minutes at ambient temperature and after the addition of ^14 C-labelled arachidonic acid incubation is continued for a further 10 minutes. After this has been stopped with 50 μl of citric acid, extraction is carried out 3 times with 500 μl of ethyl acetate and the combined extracts are distilled off with nitrogen. The residue is taken up in ethyl acetate, placed on TLC film and separated with chloro-form:methanol:glacial acetic acid:water (90:8:1:0.8, v/v/v/v). The dried TLC films are placed on X-ray film for 3 days, the autoradiograms were developed and the active zones were marked on the film using the autoradiograms. After cutting out, the activity is measured in a scintillation counter and the inhibition of the formation of TXB2 is calculated. The IC50 is determined by linear interpolation.

Thromboxane = target: T2, Thromboxane (Homo sapiens, UniProt P21731); assay: Thromboxane-antagonistic activity (displacement of 3H-labelled ligand on human platelets); format: binding; conditions: human platelet suspension, 60 minutes at ambient temperature
T2 construct: endogenous in cells; host or cells: human platelets (platelet-rich plasma passed through Sepharose 2B)
T2 sequence (P21731 1-343): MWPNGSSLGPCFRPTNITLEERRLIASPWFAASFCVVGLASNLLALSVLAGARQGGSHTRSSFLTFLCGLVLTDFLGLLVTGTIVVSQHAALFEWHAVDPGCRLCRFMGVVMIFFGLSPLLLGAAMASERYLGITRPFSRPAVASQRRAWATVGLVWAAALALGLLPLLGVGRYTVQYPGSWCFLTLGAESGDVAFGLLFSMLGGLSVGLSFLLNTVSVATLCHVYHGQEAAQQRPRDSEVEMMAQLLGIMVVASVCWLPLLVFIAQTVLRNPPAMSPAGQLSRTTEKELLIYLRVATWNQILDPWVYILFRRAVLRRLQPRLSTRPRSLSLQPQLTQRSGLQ
Procedure: Thromboxane-antagonistic Activity
Venous human blood is anti-coagulated with 13 mM Na3 citrate and centrifuged for 10 minutes at 170×g. The supernatant platelet-rich plasma is passed through a Sepharose 2B column in order to remove the plasma proteins. Aliquots of the platelet suspension obtained are incubated with the test substance, the ligand (^3 H-labelled) and a marker (^14 C-labelled) for 60 minutes at ambient temperature and then centrifuged for 20 seconds at 10,000×g. The supernatant is removed and the pellet is dissolved in NaOH. The ^3 H activity in the supernatant corresponds to the free ligand, ^14 C gives the concentration of the marker. ^3 H in the pellet corresponds to the bound ligand whilst ^14 C is used to correct for the ligand in the extracellular space. After the process has been repeated, the displacement curve is determined from the binding values for different concentrations of the test substance and the IC50 is determined.

thrombocyte aggregation = assay: Antithrombotic activity: collagen-induced aggregation in platelet-rich plasma (Born and Cross); format: cell-based; conditions: Homo sapiens, 10 min; platelet-rich plasma from healthy volunteers; incubated 10 minutes at 37° C.; 50% change in optical density; read-out: Inhibition of collagen-induced aggregation EC50
Procedure: The thrombocyte aggregation is measured using the method of Born and Cross (J. Physiol. 170, 397 (1964)) in platelet-rich plasma taken from healthy volunteers. To inhibit coagulation, the blood is mixed with 3.14% strength sodium citrate in a ratio by volume of 1:10.
Collagen-induced Aggregation
The pattern of decrease in the optical density of the platelet suspension is photometrically measured and recorded after the addition of the aggregation-triggering substance. The rate of aggregation is concluded from the angle of inclination of the density curve. The point on the curve where there is greatest light transmittance is used to calculate the "optical density".
The quantity of collagen used is as little as possible but sufficient to produce an irreversible reaction curve. Standard commercial collagen produced by Hormonchemie of Munich is used. Before the addition of the collagen the plasma is incubated for 10 minutes with the substance at 37° C.
From the measurements obtained an EC50 is determined by plotting a graph, and indicates a 50% change in the "optical density" in terms of the inhibition of aggregation.

Row | IC50 (thromboxane synthetase) [nM] | IC50 (Thromboxane) [nM] | SMILES | EC50 (thrombocyte aggregation) [nM]
1 | 2700 | 600 | CC(C)CNC(=NS(N)(=O)=O)Nc1cccc(/C(=C\CCCC(=O)O)c2cccnc2)c1 [W, 5E-6-(3-(2-amidosulphonyl-3-(2-methylpropyl)guanidino)phenyl)-6-(3-pyridyl)hex-5-enoic acid] | 12000
2 | 5 | 380 | CC(C)CNC(Nc1cccc(/C(=C\CCCC(=O)O)c2cccnc2)c1)=C(C#N)C(N)=O [X, 5E-6-(3-(2-carbamoyl-2-cyano-1-(2-methylpropylamino)-ethyleneamino)phenyl)-6-(3-pyridyl)hex-5-enoic acid] | 31000
3 | 250 | 21 | N#CN=C(Nc1cccc(/C(=C\CCCn2cnnn2)c2cccnc2)c1)NC1CCCC1 [Y, 4E-1-(5-(3-(2-cyano-3-cyclopentyl-guanidino)phenyl)-5-(3-pyridyl)-pent-4-enyl)tetrazole] | 1200

Source: US5482948A, “Pyridyl derivatives and pharmaceutical compositions comprising these compounds” (Dr. Karl Thomae GmbH, priority 1991, dated 1996)
